Laboratory results as given in patent publication US9533987B2, “Heterocyclic derivates” (KALVISTA PHARMACEUTICALS LIMITED, priority 2013, dated 2017).

Key:
Assay type in all cases: biochemical
[1] = molecular target: Factor XIIa (Homo sapiens (Human), UniProt P00748); assay: Determination of enzyme selectivity, Factor XIIa; details: substrate at Km concentration
Description: Determination of Enzyme Selectivity
Human serine protease enzymes plasmin, thrombin, trypsin, Factor Xa and Factor XIIa were assayed for enzymatic activity using an appropriate fluorogenic substrate. Protease activity was measured by monitoring the accumulation of liberated fluorescence from the substrate over 5 minutes. The linear rate of fluorescence increase per minute was expressed as percentage (%) activity. The Km for the cleavage of each substrate was determined by standard transformation of the Michaelis-Menten equation.

[2] = molecular target: Human plasma kallikrein (Homo sapiens (Human), UniProt P03952); assay: Determination of the IC50 for plasma kallikrein (fluorogenic substrate H-DPro-Phe-Arg-AFC); details: 37° C., read-out: IC50 (human PKaI)
Description: Determination of the IC50 for Plasma Kallikrein
(§1) Human plasma kallikrein (Protogen) was incubated at 37° C. with the fluorogenic substrate H-DPro-Phe-Arg-AFC and various concentrations of the test compound. Residual enzyme activity (initial rate of reaction) was determined by measuring the change in […] at 410 nm and the IC50 value for the test compound was determined.

[3] = molecular target: Human KLK1 (Homo sapiens (Human), UniProt P06870); assay: Determination of the IC50 for KLK1 (fluorogenic substrate H-DVal-Leu-Arg-AFC); details: 37° C.
Description: Determination of the IC50 for KLK1
as §1, with “KLK1 (Callbiochem)” for “plasma kallikrein (Protogen)”, “H-DVal-Leu-Arg-AFC” for “H-DPro-Phe-Arg-AFC”

Human plasma kallikrein, sequence (P03952 391-638): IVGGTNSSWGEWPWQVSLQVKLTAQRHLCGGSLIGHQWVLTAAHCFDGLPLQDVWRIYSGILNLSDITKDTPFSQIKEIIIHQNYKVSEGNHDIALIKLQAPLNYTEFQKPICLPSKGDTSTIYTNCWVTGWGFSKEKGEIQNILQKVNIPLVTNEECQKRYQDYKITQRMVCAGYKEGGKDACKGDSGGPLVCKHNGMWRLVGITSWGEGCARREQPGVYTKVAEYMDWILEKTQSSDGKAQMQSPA
Human plasma kallikrein, sequence (P03952 20-390 partner): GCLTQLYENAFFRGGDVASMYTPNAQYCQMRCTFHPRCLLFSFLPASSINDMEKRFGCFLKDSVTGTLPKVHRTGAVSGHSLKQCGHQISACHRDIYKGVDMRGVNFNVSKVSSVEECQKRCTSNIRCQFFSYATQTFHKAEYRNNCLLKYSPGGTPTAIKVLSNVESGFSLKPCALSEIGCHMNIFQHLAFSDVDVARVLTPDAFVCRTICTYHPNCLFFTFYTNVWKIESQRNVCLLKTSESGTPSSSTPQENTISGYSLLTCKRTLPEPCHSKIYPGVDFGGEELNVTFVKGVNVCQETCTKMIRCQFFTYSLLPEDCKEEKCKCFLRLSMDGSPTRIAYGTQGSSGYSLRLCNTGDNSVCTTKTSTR
Human KLK1, sequence (P06870 25-262): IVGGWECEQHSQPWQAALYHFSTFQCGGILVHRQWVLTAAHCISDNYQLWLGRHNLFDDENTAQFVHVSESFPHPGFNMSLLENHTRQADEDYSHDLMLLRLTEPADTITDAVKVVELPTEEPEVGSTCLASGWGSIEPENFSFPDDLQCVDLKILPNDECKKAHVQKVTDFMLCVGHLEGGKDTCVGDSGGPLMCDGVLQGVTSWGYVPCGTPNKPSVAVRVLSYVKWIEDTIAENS
Factor XIIa, sequence (P00748 373-615): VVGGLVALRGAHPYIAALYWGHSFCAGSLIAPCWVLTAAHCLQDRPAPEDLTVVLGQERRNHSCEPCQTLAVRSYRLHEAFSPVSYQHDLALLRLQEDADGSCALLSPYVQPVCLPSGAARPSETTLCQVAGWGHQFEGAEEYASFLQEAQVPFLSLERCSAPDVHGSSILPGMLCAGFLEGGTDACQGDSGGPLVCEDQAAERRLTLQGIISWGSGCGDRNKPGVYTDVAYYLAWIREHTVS

IC50 [1] [nM]	IC50 [2] [µM]	IC50 [3] [µM]	Compound
> 40000	0.82	4.32	Nc1nccc2cc(CNC(=O)c3cnn(Cc4cccc(Oc5ncccc5F)c4)c3)ccc12 [Example 48, 1-[3-(3-Fluoro-pyridin-2-yloxy)-benzyl]-1H-pyrazole-4-carboxylic acid (1-amino-isoquinolin-6-ylmethyl)-amide]
> 10000	0.0039	7.09	Cc1cc(C(=O)NCc2ccc3c(N)nccc3c2)c(C)n1Cc1ccc(Cn2ccccc2=O)cc1 [Example 44, 2,5-Dimethyl-1-[4-(2-oxo-2H-pyridin-1-ylmethyl)-benzyl]-1H-pyrrole-3-carboxylic acid (1-amino-isoquinolin-6-ylmethyl)-amide]
> 40000	0.186	8.09	Nc1nccc2cc(CNC(=O)c3cnn(Cc4ccc(Oc5ccccn5)cc4)c3)ccc12 [Example 49, 1-[4-(Pyridin-2-yloxy)-benzyl]-1H-pyrazole-4-carboxylic acid (1-amino-isoquinolin-6-ylmethyl)-amide]
> 40000	0.014	> 40	Cc1cnn(Cc2ccc(Cn3cc(C(=O)NCc4c(C)nc5[nH]ccc5c4C)cn3)cc2)c1 [Example 118, 1-[4-(4-Methyl-pyrazol-1-ylmethyl)-benzyl]-1H-pyrazole-4-carboxylic acid (4,6-dimethyl-1H-pyrrolo[2,3-b]pyridin-5-ylmethyl)-amide]
> 10000	0.217	7.17	Cc1cnn(Cc2ccc(Cn3cc(C(=O)NCc4ccc5[nH]ncc5c4)c(C(F)(F)F)n3)cc2)c1 [Example 111, 1-[4-(4-Methyl-pyrazol-1-ylmethyl)-benzyl]-3-trifluoromethyl-1H-pyrazole-4-carboxylic acid (1H-indazol-5-ylmethyl)-amide]
> 10000	0.0149	> 10	Nc1nccc2cc(CNC(=O)c3cn(Cc4ccc(N5CCC(F)(F)C5)nc4)nc3C(F)(F)F)ccc12 [Example 57, 1-[6-(3,3-Difluoro-pyrrolidin-1-yl)-pyridin-3-ylmethyl]-3-trifluoromethyl-1H-pyrazole-4-carboxylic acid (1-amino-isoquinolin-6-ylmethyl)-amide]
> 10000	0.0637	> 10	CCn1c(C(=O)NCc2ccc3c(N)nccc3c2)cc(C)c1Cc1ccc(Cn2cc(C)cn2)cc1 [Example 28, 1-Ethyl-4-methyl-5-[4-(4-methyl-pyrazol-1-ylmethyl)-benzyl]-1H-pyrrole-2-carboxylic acid (1-amino-isoquinolin-6-ylmethyl)-amide]
> 40000	4.2	> 40	O=C(NCc1cnc2[nH]ccc2c1)c1cnn(Cc2ccc(COc3cccc(F)n3)cc2)c1 [Example 109, 1-[4-(6-Fluoro-pyridin-2-yloxymethyl)-benzyl]-1H-pyrazole-4-carboxylic acid (1H-pyrrolo[2,3-b]pyridin-5-ylmethyl)-amide]
> 10000	0.0028	> 10	Cc1cnn(Cc2ccc(Cn3cc(C(=O)NCc4ccc5c(N)nccc5c4)nn3)cc2)c1 [Example 33, 1-[4-(4-Methyl-pyrazol-1-ylmethyl)-benzyl]-1H-[1,2,3]triazole-4-carboxylic acid (1-amino-isoquinolin-6-ylmethyl)-amide]
> 4000	0.0467	18.2	Nc1nccc2cc(CNC(=O)c3cn(Cc4ccnc(N5CCCC5)c4)nc3C(F)(F)F)ccc12 [Example 54, 1-(2-Pyrrolidin-1-yl-pyridin-4-ylmethyl)-3-trifluoromethyl-1H-pyrazole-4-carboxylic acid (1-amino-isoquinolin-6-ylmethyl)-amide]
> 10000	0.132	> 10	Cc1cnn(Cc2ccc(Cn3cc(C(=O)NCc4cc5cc[nH]c5nc4C)cn3)cc2)c1 [Example 22, 1-[4-(4-Methyl-pyrazol-1-ylmethyl)-benzyl]-1H-pyrazole-4-carboxylic acid (6-methyl-1H-pyrrolo[2,3-b]pyridin-5-ylmethyl)-amide]
> 40000	0.203	> 40	Nc1nccc2cc(CNC(=O)c3cnn(Cc4ccc(COc5cccc(F)n5)cc4)c3)ccc12 [Example 50, 1-[4-(6-Fluoro-pyridin-2-yloxymethyl)-benzyl]-1H-pyrazole-4-carboxylic acid (1-amino-isoquinolin-6-ylmethyl)-amide]
> 10000	0.00368	> 10	Cc1cnn(Cc2ccc(Cn3cc(C(=O)NCc4ccc5c(N)nccc5c4)c(-c4ccccc4)n3)cc2)c1 [Example 35, 1-[4-(4-Methyl-pyrazol-1-ylmethyl)-benzyl]-3-phenyl-1H-pyrazole-4-carboxylic acid (1-amino-isoquinolin-6-ylmethyl)-amide]
> 10000	9.46	9.46	CCn1c(C(=O)NCc2ccc3c(N)nccc3c2)cc(C)c1Cc1ccc(Cn2ccccc2=O)cc1 [Example 6, 1-Ethyl-4-methyl-5-[4-(2-oxo-2H-pyridin-1-ylmethyl)-benzyl]-1H-pyrrole-2-carboxylic acid (1-amino-isoquinolin-6-ylmethyl)-amide]
> 10000	0.0123	5.7	C[C@@H]1CCCN1c1ccc(Cn2cc(C(=O)NCc3ccc4c(N)nccc4c3)c(C(F)(F)F)n2)cn1 [Example 63, 1-[6-((R)-2-Methyl-pyrrolidin-1-yl)-pyridin-3-ylmethyl]-3-trifluoromethyl-1H-pyrazole-4-carboxylic acid (1-amino-isoquinolin-6-ylmethyl)-amide]
> 10000	0.146	7.23	Cc1cnn(Cc2ccc(Cn3cc(C(=O)NCc4cccc5[nH]ncc45)c(C(F)(F)F)n3)cc2)c1 [Example 124, 1-[4-(4-Methyl-pyrazol-1-ylmethyl)-benzyl]-3-trifluoromethyl-1H-pyrazole-4-carboxylic acid (1H-indazol-4-ylmethyl)-amide]
> 10000	0.032	> 10	Cc1cnn(Cc2ccc(Cc3nc(C)c(C(=O)NCc4ccc5c(N)nccc5c4)s3)cc2)c1 [Example 18, 4-Methyl-2-[4-(4-methyl-pyrazol-1-ylmethyl)-benzyl]-thiazole-5-carboxylic acid (1-amino-isoquinolin-6-ylmethyl)-amide]
> 40000	2.3	38.1	O=C(NCc1cnc2[nH]ccc2c1)c1cnn(Cc2ccc(Oc3ccccn3)cc2)c1 [Example 107, 1-[4-(Pyridin-2-yloxy)-benzyl]-1H-pyrazole-4-carboxylic acid (1H-pyrrolo[2,3-b]pyridin-5-ylmethyl)-amide]
> 10000	0.562	> 10	Cc1cnn(Cc2ccc(Cn3cc(C(=O)NCc4ccc5[nH]c(C)cc5c4)c(C(F)(F)F)n3)cc2)c1 [Example 110, 1-[4-(4-Methyl-pyrazol-1-ylmethyl)-benzyl]-3-trifluoromethyl-1H-pyrazole-4-carboxylic acid (2-methyl-1H-indol-5-ylmethyl)-amide]
> 10000	0.108	8.88	C[C@@H]1CCN(c2cc(Cn3cc(C(=O)NCc4ccc5c(N)nccc5c4)c(C(F)(F)F)n3)ccn2)C1 [Example 67, 1-[2-((R)-3-Methyl-pyrrolidin-1-yl)-pyridin-4-ylmethyl]-3-trifluoromethyl-1H-pyrazole-4-carboxylic acid (1-amino-isoquinolin-6-ylmethyl)-amide]
> 4000	0.0866	> 4	1-[4-(4-Methyl-pyrazol-1-ylmethyl)-benzyl]-3-trifluoromethyl-1H-pyrazole-4-carboxylic acid (4,6-dimethyl-1H-pyrrolo[2,3-b]pyridin-5-ylmethyl)-amide [Example 119]
> 40000	0.3	> 40	Nc1nccc2cc(CNC(=O)c3cnn(Cc4cc5cc(OC(F)(F)F)ccc5[nH]4)c3)ccc12 [Example 52, 1-(5-Trifluoromethoxy-1H-indol-2-ylmethyl)-1H-pyrazole-4-carboxylic acid (1-amino-isoquinolin-6-ylmethyl)-amide]
> 10000	1.47	5.75	CCn1c(C(=O)NCc2ccc3c(N)nccc3c2)cc(C)c1Cc1ccc(N2CCCC2)nc1 [Example 30, 1-Ethyl-4-methyl-5-(6-pyrrolidin-1-yl-pyridin-3-ylmethyl)-1H-pyrrole-2-carboxylic acid (1-amino-isoquinolin-6-ylmethyl)-amide]
> 10000	0.00127	7.84	COCc1nn(Cc2ccc(Cn3cc(C)cn3)cc2)cc1C(=O)NCc1ccc2c(N)nccc2c1 [Example 38, 3-Methoxymethyl-1-[4-(4-methyl-pyrazol-1-ylmethyl)-benzyl]-1H-pyrazole-4-carboxylic acid (1-amino-isoquinolin-6-ylmethyl)-amide]
> 40000	12	> 40	O=C(NCc1cnc2[nH]ccc2c1)c1cnn(Cc2cccc(Oc3ncccc3F)c2)c1 [Example 106, 1-[3-(3-Fluoro-pyridin-2-yloxy)-benzyl]-1H-pyrazole-4-carboxylic acid (1H-pyrrolo[2,3-b]pyridin-5-ylmethyl)-amide]
